This note sets out measurements from patent US4387098A, “Imidazo[1,2-a]quinoline derivatives useful as anxiolytics” (Roussel Uclaf, priority 1981, dated 1983).

As a reminder, the IC50 is the point on the concentration scale where inhibition reaches its midpoint.

The target of one assay is benzodiazepine receptor. The experiment in a line: benzodiazepine receptor affinity, [^3 H] flunitrazepam radio receptor binding (modified Squires and Braestrup) on rat forebrain membrane preparations. Conditions: 0.6 nM [^3 H] flunitrazepam, read-out: IC50, inhibition of the specific binding of [^3 H] flunitrazepam by 50%. Here is the method:
A. The affinity of the compounds for the benzodiazepine receptor was assessed using the radioligand [^3 H] flunitrazepam and modifications of the original radio receptor binding method of Squires and Braestrup (Nature, 1977, Vol. 266, p. 732). The values of Table V are nanomolar concentrations of test compound which inhibited the specific binding of 0.6 nM[^3 H] flunitrazepam to rat forebrain membrane preparations by 50% (IC50 nM).

Assay [1] can be described thus: anxiolytic activity, one-day lick shock method of Vogel et al. The assay is classed as in vivo. Conditions: po, 24 h, orally, read-out: minimum effective dose (MED) at which there was an observed increase in shocks above control. Here is the method:
B. Screening for anxiolytic activity was carried out by the one-day lick shock method of Vogel et al [Psychopharmacologia, 1971 Vol. 21, p. 1]. The values of Table VI are the minimum effective doses (MED) in mg/kg orally at which there was an observed increase in shocks above control.

With `COc1cc2nc(C(=O)c3ccccc3)cn2c2ccccc12` [Example 4, (5-methoxy-imidazo[1,2-a]quinolin-2-yl)-phenyl-methanone], the IC50 on benzodiazepine receptor was 0.027 µM. Besides, in assay [1], the minimal effective dose was found to be 25 mg/kg. The matching figures for `CCCCc1ccc2c(c1)c(OC)cc1nc(C(=O)c3ccccc3)cn12` [Example 16]: 0.057 µM and 25 mg/kg. As for `CCCCOc1cc2nc(C(=O)c3ccccc3)cn2c2ccccc12` [Example 10], the IC50 on benzodiazepine receptor was determined as 1 µM. Turning to `CCc1ccc(C(=O)c2cn3c(cc(OC)c4cc(CC)ccc43)n2)cc1` [Example 29], the IC50 on benzodiazepine receptor is 0.051 µM. On the same count and under the same terms, the figure for `COc1cc2nc(C(=O)c3ccc(Cl)cc3)cn2c2ccccc12` [Example 20] is 0.096 µM. For the compound `CCc1ccc2c(c1)c(OC)cc1nc(C(C)=O)cn12` [Example 6], the IC50 at benzodiazepine receptor was 1.3 µM. The minimal effective dose in assay [1] stood at 20 mg/kg. On to `CCc1ccc2c(c1)c(OC)cc1nc(C(=O)c3ccccn3)cn12` [Example 30], for which the IC50 at benzodiazepine receptor turned out to be 0.092 µM. Take `COc1cc2nc(C(=O)c3ccccc3)cn2c2c(OC)cccc12` [Example 19]: the IC50 at benzodiazepine receptor came to 0.63 µM. Same read-out and setting: the figure for `COc1cc2nc(C(=O)c3ccccc3)cn2c2cc(Cl)ccc12` [Example 22] is 0.34 µM. On the same count and under the same terms, the figure for `COc1cc2nc(C(=O)c3ccccc3)cn2c2c(Cl)cccc12` [Example 23] is 0.132 µM. Take `COc1cc2nc(C(=O)c3ccccc3)cn2c2ccc(C(C)C)cc12` [Example 15]: at benzodiazepine receptor, the IC50 came out at 0.025 µM. The minimal effective dose in assay [1] was 10 mg/kg. As for `COc1cc2nc(C(=O)c3ccccc3)cn2c2ccc(C3CCCCC3)cc12` [Example 26], the IC50 at benzodiazepine receptor was 10 µM. Same read-out and setting: the figure for `COc1ccc2c(c1)c(OC)cc1nc(C(=O)c3ccccc3)cn12` [Example 14] is 0.051 µM. Same read-out and setting: the figure for `COc1cc2nc(C(=O)c3ccccc3)cn2c2ccc(Oc3ccccc3)cc12` [Example 27] is 0.21 µM; for `CCCOc1cc2nc(C(=O)c3ccccc3)cn2c2ccccc12` [Example 12] it is 1 µM. On the same count and under the same terms, with `COc1ccc2c(OC)cc3nc(C(=O)c4ccccc4)cn3c2c1` [Example 3] the figure was 5 µM. With `COc1cc2nc(C(=O)c3ccccc3)cn2c2ccc(C)cc12` [Example 13], the IC50 on benzodiazepine receptor is 0.021 µM. Also, the minimal effective dose in assay [1] turned out to be 25 mg/kg. Consider `COc1cc2nc(C(=O)c3ccc(C)cc3)cn2c2ccccc12` [Example 17], for which the half-maximal inhibitory concentration (IC50) on benzodiazepine receptor amounted to 0.019 µM.

Take `COc1cc2nc(C(=O)c3cccs3)cn2c2ccccc12` [Example 21]: the IC50 on benzodiazepine receptor is 0.024 µM.

`CSc1cc2nc(C(=O)c3ccccc3)cn2c2ccccc12` [Example 2, (5-methylthio-imidazo[1,2-a]quinolin-2-yl)-phenyl-methanone]: the IC50 on benzodiazepine receptor is 0.5 µM.

Turning to `COc1cc2nc(C(=O)c3ccccc3)cn2c2ccc(Cl)cc12` [Example 7], the half-maximal inhibitory concentration (IC50) on benzodiazepine receptor is 0.6 µM. Take `CCc1ccc2c(c1)c(OC)cc1nc(C(=O)c3ccccc3)cn12` [Example 1]: the concentration for half-maximal inhibition (IC50) on benzodiazepine receptor stood at 0.014 µM. Moreover, in assay [1], the minimal effective dose came out at 20 mg/kg. Take `CC(C)Oc1cc2nc(C(=O)c3ccccc3)cn2c2ccccc12` [Example 8, (5-isopropoxy-imidazo[1,2-a]quinolin-2-yl)-phenyl-methanone]: the IC50 on benzodiazepine receptor turned out to be 0.47 µM. The same measure, in the same setting: with `CCc1ccc(C(=O)c2cn3c(cc(OC)c4ccccc43)n2)cc1` [Example 11, (4-ethyl-phenyl)(5-methoxy-imidazo[1,2-a]quinolin-2-yl)-methanone] the figure was 0.067 µM; with `CCc1ccc2c(c1)c(OC)cc1nc(C(=O)c3ccc(OC)cc3)cn12` [Example 28], 0.03 µM. Same read-out and setting: the figure for `CCOc1cc2nc(C(=O)c3ccccc3)cn2c2ccccc12` [Example 9] is 0.54 µM.

With `COc1cc2nc(C(=O)c3ccccc3)cn2c2cc(C)ccc12` [Example 24], the half-inhibitory concentration (IC50) at benzodiazepine receptor was 0.29 µM. Still for that read-out and setting: the figure for `COc1ccc(C(=O)c2cn3c(cc(OC)c4ccccc43)n2)cc1` [Example 18] is 0.037 µM; for `COc1cc2nc(C(=O)c3ccccc3)cn2c2cccc(C)c12` [Example 25] it is 0.011 µM.

With `COc1cc2nc(C(=O)c3ccccc3)cn2c2ccc(F)cc12` [Example 31], the concentration for half-maximal inhibition (IC50) on benzodiazepine receptor was found to be 0.074 µM.
